Consider eleven compounds from patent US6358886B1, “6-Substituted 2,4-diamino-1,3,5-triazine derivatives having at least two asymmetrically substituted carbon atoms, the production thereof, and their use as herbicides” (Bayer Aktienegesellschaft, priority 1998, dated 2002).

Common to all, as to type: in vivo
For data set [1], the system named is weeds. Put plainly: Post-emergence test. The note with it: result in words. As to the method: (§1) Solvent: 5 parts by weight of acetone
(§2) Emulsifier: 1 part by weight of alkylaryl polyglycol ether
(§3) To produce a suitable preparation of active compound, 1 part by weight of active compound is mixed with the stated amount of solvent, the stated amount of emulsifier is added and the concentrate is diluted with water to the desired concentration.
(§4) Test plants which have a height of 5-15 cm are sprayed with the preparation of active compound such that the particular amounts of active compound desired are applied per unit area. The concentration of the spray liquor is chosen so that the particular amounts of active compound desired are applied in 1000 l of water/ha.
(§5) After three weeks, the degree of damage to the plants is rated in % damage in comparison to the development of the untreated control.
(§6) 0%=no effect (like untreated control)

The subject of a further data set is Xanthium. As to the kind of experiment: Post-emergence test/greenhouse. The note with it: after three weeks. As to the method:
as §1, §2, §3, §4, §5, §6

In data set [2] the test system is Setaria. As to the kind of experiment: Post-emergence test/greenhouse. The method, then:
as §1, §2, §3, §4, §5, §6

Data set [3] has as its system Abutilon. As to the kind of experiment: Post-emergence test/greenhouse. The note with it: after three weeks. The method, then:
as §1, §2, §3, §4, §5, §6

For data set [4], the system named is Sinapis. As to the kind of experiment: Post-emergence test/greenhouse. The note with it: Table A-3, 1000 g of ai./ha, after three weeks. The method, then:
as §1, §2, §3, §4, §5, §6

Data set [5] has as its system Amaranthus. As to the kind of experiment: Post-emergence test/greenhouse. As to conditions: after three weeks. As to the method:
as §1, §2, §3, §4, §5, §6

Data set [6] relates to weeds. As to the kind of experiment: Pre-emergence test. The note with it: result in words. The method, then: as §1, §2, §3
(§7) Seeds of the test plants are sown in normal soil. After about 24 hours, the soil is sprayed with the preparation of active compound such that the particular amounts of active compound desired are applied per unit area. The concentration of the spray liquor is chosen so that the particular amounts of active compound desired are applied in 1000 l of water/ha.
as §5, §6

Data set [7] relates to crop plants, such as, for example, sunflowers. Put plainly: Pre-emergence test, crop tolerance. As to conditions: result in words. As to the method: as §1, §2, §3, §7, §5, §6
Data set [8] concerns Abutilon. Put plainly: Pre-emergence test/greenhouse. As to conditions: after three weeks. As to the method:
as §1, §2, §3, §7, §5, §6

The test system of a further data set is Alopecurus. As to the kind of experiment: Pre-emergence test/greenhouse. As to conditions: after three weeks. As to the method: as §1, §2, §3, §7, §5, §6
The subject of data set [9] is Sinapis. As to the kind of experiment: Pre-emergence test/greenhouse. As to conditions: after three weeks. As to the method: as §1, §2, §3, §7, §5, §6
Another data set concerns Maize. Put plainly: Pre-emergence test/greenhouse. The note with it: after three weeks, crop plant. As to the method: as §1, §2, §3, §7, §5, §6
Data set [10] has as its system Amaranthus. Put plainly: Pre-emergence test/greenhouse. As to conditions: after three weeks. The method, then: as §1, §2, §3, §7, §5, §6
The test system of the next data set is Galium. Put plainly: Pre-emergence test/greenhouse. The note with it: after three weeks. As to the method: as §1, §2, §3, §7, §5, §6
Data set [11] deals with Setaria. Put plainly: Pre-emergence test/greenhouse. The note with it: after three weeks. As to the method:
as §1, §2, §3, §7, §5, §6

Setting [12] is: Table A-3, 1000 g of ai./ha, after three weeks.

For the compound `CC[C@H](Nc1nc(N)nc([C@H](C)Cl)n1)c1ccccc1` [Example 22], the activity against weeds result in the data set with weeds [1] is “strong activity”. Besides, the “degree of damage, Xanthium” value in the data set with Xanthium (Table A-3, 1000 g of ai./ha) was determined as 100%. In the data set on Setaria [2] (setting [12]), the “degree of damage, Setaria” value was 95%. In the data set on Abutilon [3] (Table A-3, 1000 g of ai./ha), the “degree of damage, Abutilon” value is 95%. For the same compound, the “degree of damage, Sinapis” value with Sinapis [4] is given as 100%. Moreover, the “degree of damage, Amaranthus” value in the data set on Amaranthus [5] (Table A-3, 1000 g of ai./ha) is reported as 100%.
In the case of `C[C@H](Nc1nc(N)nc([C@@H](C)O)n1)c1ccccc1` [Example 1, 2-amino-4-(R)-(1-hydroxyethyl)-6-(S)-(1-phenyl-ethylamino)-1,3,5-triazine], the activity against weeds result in the data set on weeds [1] and with weeds [6] was “strong activity” in each case. Besides, the “tolerance by crop plants” value in [7] is “tolerated well”. In the data set on Xanthium (Table A-1, 1000 g of ai./ha), the “degree of damage, Xanthium” value came to 95%. Further, in the data set with Setaria [2] (Table A-1, 1000 g of ai./ha, rated after three weeks, 0%=no effect, 100%=total destruction), the “degree of damage, Setaria” value turned out to be 90%. Besides, the “degree of damage, Abutilon” value in the data set on Abutilon [3] (Table A-1, 1000 g of ai./ha) is reported as 80%. For the same compound, in the data set on Amaranthus [5] (Table A-1, 1000 g of ai./ha), the “degree of damage, Amaranthus” value came out at 100%.
Turning to `CCC(=O)Nc1nc(NC(CC)COc2ccccc2)nc([C@H](C)Cl)n1` (mixture of isomers) [Example 9], the “degree of damage, Abutilon” value with Abutilon [8] (Table B-2, 1000 g of ai./ha) came to 95%. In addition, in the data set with Alopecurus (Table B-2, 1000 g of ai./ha), the “degree of damage, Alopecurus” value was found to be 95%. Also, the “degree of damage, Sinapis” value in the data set with Sinapis [9] (Table B-2, 1000 g of ai./ha) came to 100%. Moreover, the “degree of damage, Maize” value with Maize (Table B-2, 1000 g of ai./ha) turned out to be 20%. Moreover, in the data set on Amaranthus [10] (Table B-2, 1000 g of ai./ha), the “degree of damage, Amaranthus” value turned out to be 100%.
As to `CCC(COc1cc(C)cc(C)c1)Nc1nc(N)nc([C@H](C)O)n1` (mixture of isomers) [Example 3], the “degree of damage, Galium” value in the data set on Galium (Table B-3, 2000 g of ai./ha) worked out at 100%. Also, the “degree of damage, Setaria” value in the data set with Setaria [11] (Table B-3, 2000 g of ai./ha) turned out to be 100%. The “degree of damage, Abutilon” value with Abutilon [8] (Table B-3, 2000 g of ai./ha) is 100%. Moreover, in the data set with Sinapis [9] (Table B-3, 2000 g of ai./ha), the “degree of damage, Sinapis” value was 100%. Moreover, in the data set on Amaranthus [10] (Table B-3, 2000 g of ai./ha), the “degree of damage, Amaranthus” value is reported as 100%.
With `CC[C@H](Nc1nc(N)nc([C@@H](C)Cl)n1)c1ccccc1` [Example 23], the activity against weeds entry with weeds [1] is “strong activity”. The “degree of damage, Xanthium” value in the data set with Xanthium (Table A-3, 1000 g of ai./ha) is recorded as 100%. The “degree of damage, Setaria” value with Setaria [2] (setting [12]) worked out at 80%. Further, the “degree of damage, Abutilon” value in the data set with Abutilon [3] (Table A-3, 1000 g of ai./ha) was found to be 95%. Moreover, the “degree of damage, Sinapis” value in the data set on Sinapis [4] came out at 100%. Besides, in the data set with Amaranthus [5] (Table A-3, 1000 g of ai./ha), the “degree of damage, Amaranthus” value is 100%.
As for `CCC(COc1cc(C)cc(C)c1)Nc1nc(N)nc([C@@H](C)Cl)n1` (mixture of isomers) [Example 5], in the data set with Galium (Table B-1, 1000 g of ai./ha), the “degree of damage, Galium” value amounted to 100%. Further, the “degree of damage, Setaria” value in the data set with Setaria [11] (Table B-1, 1000 g of ai./ha) was 100%. For the same compound, in the data set with Abutilon [8] (Table B-1, 1000 g of ai./ha), the “degree of damage, Abutilon” value is listed as 100%. For the same compound, the “degree of damage, Maize” value with Maize (Table B-1, 1000 g of ai./ha) came to 20%.
On to `CCC(CCc1ccsc1)Nc1nc(N)nc([C@H](C)Cl)n1` (mixture of isomers) [Example 15], for which, in the data set with Galium (Table B-3, 1000 g of ai./ha), the “degree of damage, Galium” value amounted to 100%. In addition, the “degree of damage, Setaria” value with Setaria [11] (Table B-3, 1000 g of ai./ha) is on record as 100%. The “degree of damage, Abutilon” value in the data set with Abutilon [8] (Table B-3, 1000 g of ai./ha) is reported as 100%. The “degree of damage, Alopecurus” value with Alopecurus (Table B-3, 1000 g of ai./ha) is 100%. Moreover, the “degree of damage, Sinapis” value in the data set on Sinapis [9] (Table B-3, 1000 g of ai./ha) is listed as 100%. In the data set with Amaranthus [10] (Table B-3, 1000 g of ai./ha), the “degree of damage, Amaranthus” value is on record as 100%.
With `CCC(COc1ccccc1)Nc1nc(N)nc([C@H](C)Cl)n1` (mixture of isomers) [Example 7], the “degree of damage, Galium” value with Galium (Table B-3, 1000 g of ai./ha) is 100%. Further, in the data set on Setaria [11] (Table B-3, 1000 g of ai./ha), the “degree of damage, Setaria” value is recorded as 95%. For the same compound, in the data set with Abutilon [8] (Table B-3, 1000 g of ai./ha), the “degree of damage, Abutilon” value worked out at 100%. Besides, the “degree of damage, Alopecurus” value with Alopecurus (Table B-3, 1000 g of ai./ha) is listed as 95%. Moreover, in the data set on Sinapis [9] (Table B-3, 1000 g of ai./ha), the “degree of damage, Sinapis” value turned out to be 100%. Moreover, the “degree of damage, Amaranthus” value in the data set on Amaranthus [10] (Table B-3, 1000 g of ai./ha) was determined as 100%.
With `CCC(COc1cc(C)cc(C)c1)Nc1nc(N)nc([C@H](C)Cl)n1` (mixture of isomers) [Example 4], the “degree of damage, Galium” value in the data set with Galium (Table B-3, 2000 g of ai./ha) stood at 100%. Besides, the “degree of damage, Setaria” value in the data set on Setaria [11] (Table B-3, 2000 g of ai./ha) was determined as 100%. The “degree of damage, Abutilon” value in the data set on Abutilon [8] (Table B-3, 2000 g of ai./ha) worked out at 100%. In addition, the “degree of damage, Alopecurus” value with Alopecurus (Table B-3, 2000 g of ai./ha) came out at 100%. For the same compound, the “degree of damage, Sinapis” value in the data set on Sinapis [9] (Table B-3, 2000 g of ai./ha) was determined as 100%. Moreover, the “degree of damage, Amaranthus” value in the data set on Amaranthus [10] (Table B-3, 2000 g of ai./ha) was 95%.
For the compound `CCC(COc1cc(C)cc(C)c1)Nc1nc(N)nc([C@@H](C)O)n1` (mixture of isomers) [Example 2], the “degree of damage, Setaria” value in the data set with Setaria [11] (Table B-2, 1000 g of ai./ha) stood at 100%. The “degree of damage, Abutilon” value in the data set with Abutilon [8] (Table B-2, 1000 g of ai./ha) worked out at 100%. For the same compound, the “degree of damage, Alopecurus” value in the data set on Alopecurus (Table B-2, 1000 g of ai./ha) was determined as 100%. In the data set with Maize (Table B-2, 1000 g of ai./ha), the “degree of damage, Maize” value is reported as 20%. Also, the “degree of damage, Amaranthus” value in the data set with Amaranthus [10] (Table B-2, 1000 g of ai./ha) stood at 80%.
Take `C[C@H](Nc1nc(N)nc([C@@H](C)Cl)n1)c1ccccc1` [Example 18]: the activity against weeds entry in the data set on weeds [1] is given as “strong activity”. Also, the “degree of damage, Xanthium” value in the data set on Xanthium (Table A-3, 1000 g of ai./ha) was found to be 100%. In the data set on Setaria [2] (setting [12]), the “degree of damage, Setaria” value came to 100%. Besides, in the data set on Abutilon [3] (Table A-3, 1000 g of ai./ha), the “degree of damage, Abutilon” value is reported as 100%. Also, the “degree of damage, Sinapis” value in the data set with Sinapis [4] was 100%. For the same compound, in the data set with Amaranthus [5] (Table A-3, 1000 g of ai./ha), the “degree of damage, Amaranthus” value came to 100%.
